Laboratory results reported in PubChem BioAssay (NCI).
“And” between values parts separate entries of the source, which are not always exact repeats. Equal values may be shown once.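 Growth conditions: 96-well plates. Treatment: test compound, 48 hours, 5 concentrations. Analysis: linear interpolation between bracketing concentrations; unreached endpoints set to highest concentration. GI50 is the concentration that inhibits growth by half. TGI is the concentration that stops growth completely.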

Columns and labels:
Test in all cases: NCI tumour cell line growth inhibition, 48 h
HCT-15 colon = tested on: HCT-15 colon
HOP-62 NSCLC = tested on: HOP-62 NSCLC
HOP-92 NSCLC = tested on: HOP-92 NSCLC
KM12 colon = tested on: KM12 colon
NCI-H460 lung = tested on: NCI-H460 lung
OVCAR-3 ovarian = tested on: OVCAR-3 ovarian
RPMI-8226 leukemia = tested on: RPMI-8226 leukemia
SF-295 CNS = tested on: SF-295 CNS
SNB-75 CNS = tested on: SNB-75 CNS
TK-10 renal = tested on: TK-10 renal

SMILES	TGI (HCT-15 colon)	TGI (HOP-62 NSCLC)	TGI (HOP-92 NSCLC)	TGI (KM12 colon)	TGI (NCI-H460 lung)	TGI (OVCAR-3 ovarian)	TGI (RPMI-8226 leukemia)	TGI (SF-295 CNS)	TGI (SNB-75 CNS)	TGI (TK-10 renal)	GI50 (HCT-15 colon)	GI50 (HOP-62 NSCLC)	GI50 (HOP-92 NSCLC)	GI50 (KM12 colon)	GI50 (NCI-H460 lung)	GI50 (OVCAR-3 ovarian)	GI50 (RPMI-8226 leukemia)	GI50 (SF-295 CNS)	GI50 (SNB-75 CNS)	GI50 (TK-10 renal)
CC(C)OC(=O)NNc1c(Cl)cc(Cl)cc1Cl	> 100 µM	> 100 µM	> 100 µM	> 100 µM	> 100 µM	> 100 µM	> 100 µM	> 100 µM	> 100 µM	> 100 µM	–	–	–	–	–	–	–	–	–	–
CCOC(=O)N1C/C(=C\c2ccc(N(C)C)cc2)C(=O)/C(=C/c2ccc(N(C)C)cc2)C1	> 100 µM	> 100 µM	> 100 µM	> 100 µM	> 100 µM	> 100 µM	> 100 µM	> 100 µM	> 100 µM	> 100 µM	–	–	–	–	–	–	–	–	–	–
O=C(Nc1ccc(Br)cc1)c1cc(Br)ccc1O	4.01 µM and 7.35 µM	8.75 µM and 5.31 µM	0.698 µM and 2.88 µM	4.99 µM and 5.31 µM	4.96 µM and 10.7 µM	7.81 µM and 7.14 µM	0.758 µM	2.3 µM and 4.08 µM	3.07 µM and 14.3 µM	> 22.1 µM	0.483 µM and 0.779 µM	0.791 µM and 1.73 µM	0.218 µM and 0.332 µM	1.67 µM and 2 µM	0.389 µM and 0.617 µM	0.314 µM and 0.535 µM	0.483 µM and 0.244 µM	0.712 µM and 1.39 µM	0.348 µM and 1.34 µM	0.379 µM and 1.56 µM
CC12CC(Br)(Br)C(=O)C3C1CCCC32	15.7 µM	28.5 µM	6.19 µM	28.3 µM	31.7 µM	7.08 µM	9.74 µM	29.5 µM	22.9 µM	12.5 µM	–	–	–	–	–	–	–	–	–	–
NNC(=O)C(=O)N/N=C1\CCCC1C(=O)CCC(=O)Nc1cccc(Cl)c1 (stereo not drawn)	–	> 100 µM	> 100 µM	> 100 µM	> 100 µM	> 100 µM	> 100 µM	> 100 µM	> 100 µM	> 100 µM	–	–	–	–	–	–	–	–	–	–
COC(=O)N1C=CC2=C(C)C3Nc4ccccc4C3C(C)=C2C1 (stereo not drawn)	33.6 µM	12.6 µM	10.1 µM	–	11.6 µM	3.69 µM	5.87 µM	17.9 µM	9.54 µM	7.24 µM	–	–	–	–	–	–	–	–	–	–
Cc1ccc(S(=O)(=O)NC(=O)Nc2ncn[nH]2)cc1	> 100 µM	> 100 µM	> 100 µM	> 100 µM	> 100 µM	> 100 µM	> 100 µM	> 100 µM	> 100 µM	> 100 µM	–	–	–	–	–	–	–	–	–	–
CCOC(=O)c1ccc(N[C@@H]2c3cc4c(cc3C(c3cc(OC)c(O)c(OC)c3)[C@H]3C(=O)OCC32)OCO4)cc1 (stereo partly drawn)	6.17 µM	0.709 µM and 0.79 µM	–	5.29 µM	1.33 µM	6.71 µM	7.08 µM	0.904 µM and 2.2 µM	0.909 µM and 4.98 µM	11.3 µM	–	0.212 µM and 0.129 µM	0.35 µM	0.875 µM	0.0385 µM	–	–	0.238 µM and 0.241 µM	0.308 µM	5 µM
CCCCCCCCCCCCNC(=S)OCCCC	> 100 µM	> 100 µM	> 100 µM	> 100 µM	> 100 µM	–	51 µM	> 100 µM	> 100 µM	> 100 µM	–	–	–	–	–	–	–	–	–	–
